Each structure is given as a SMILES string. Calls of active or inactive are those of the source. The rule behind the calls is not given here.

In this data set the test system is CCRIS mutagenicity, Ames/micronucleus/aberration tests. Nature of the data set: CCRIS mutagenicity studies.
Where [1] appears, read: Test System: AMES SALMONELLA TYPHIMURIUM, Strain/Indicator: TA98, Metabolic Activation: NONE, Method: PREINCUBATION
Setting [2] is: Test System: AMES SALMONELLA TYPHIMURIUM, Strain/Indicator: TA98, Metabolic Activation: NONE, Method: STANDARD PLATE.
The mark [3] stands for this setting: Test System: AMES SALMONELLA TYPHIMURIUM, Strain/Indicator: TA98, Metabolic Activation: RAT, LIVER, S-9, AROCLOR 1254, Method: STANDARD PLATE.
Setting [4] is: Test System: AMES SALMONELLA TYPHIMURIUM, Strain/Indicator: TA100, Metabolic Activation: NONE, Method: PREINCUBATION
Where [5] appears, read: Test System: AMES SALMONELLA TYPHIMURIUM, Strain/Indicator: TA100, Metabolic Activation: NONE, Method: STANDARD PLATE.
The mark [6] stands for this setting: Test System: AMES SALMONELLA TYPHIMURIUM, Strain/Indicator: TA98, Metabolic Activation: NONE.
Where [7] appears, read: Test System: AMES SALMONELLA TYPHIMURIUM, Strain/Indicator: TA100, Metabolic Activation: NONE.

In the case of `O=NN1CCSC1CO` (stereo not drawn), the mutagenic call under setting [1] was “inactive; negative”; the mutagenic call under setting [2] is “inactive; negative”; the mutagenic call (Test System: AMES SALMONELLA TYPHIMURIUM, Strain/Indicator: TA98, Metabolic Activation: RAT, LIVER, S-9, AROCLOR 1254, Method: PREINCUBATION) was “inactive; negative”; the mutagenic call under setting [3] was “inactive; negative”; the mutagenic call under setting [4] was “active; positive”; the mutagenic call under setting [5] was “active; positive”. Besides, the mutagenic call by setting is: (Test System: AMES SALMONELLA TYPHIMURIUM, Strain/Indicator: TA100, Metabolic Activation: RAT, LIVER, S-9, AROCLOR 1254, Method: PREINCUBATION) “active; positive”; (Test System: AMES SALMONELLA TYPHIMURIUM, Strain/Indicator: TA100, Metabolic Activation: RAT, LIVER, S-9, AROCLOR 1254, Method: STANDARD PLATE) “active; positive”.
`Cc1cccc2c1ccc1c3ccccc3ccc21`: the mutagenic call (Test System: AMES SALMONELLA TYPHIMURIUM, Strain/Indicator: TA100, Metabolic Activation: RAT, LIVER, MICROSOMES, 1-METHYLCHRYSENE, Method: STANDARD PLATE) is “inactive; negative”; the mutagenic call (Test System: AMES SALMONELLA TYPHIMURIUM, Strain/Indicator: TA100, Metabolic Activation: RAT, LIVER, MICROSOMES, AROCLOR 1254, Method: STANDARD PLATE) was “inactive; negative”; the mutagenic call (Test System: AMES SALMONELLA TYPHIMURIUM, Strain/Indicator: TA100, Metabolic Activation: RAT, LIVER, MICROSOMES, Method: STANDARD PLATE) was “inactive; negative”.
For the compound `C=CC(=O)OCCC`, the mutagenic call (Test System: MOUSE LYMPHOMA, Strain/Indicator: L5178Y (TK+/TK-), Metabolic Activation: NONE, Method: SUSPENSION/PLATE) was “active; positive. reevaluation of results: positive” and the mutagenic call (Test System: MOUSE LYMPHOMA, Strain/Indicator: L5178Y (TK+/TK-), Metabolic Activation: RAT, LIVER, S-9, AROCLOR 1254, Method: SUSPENSION/PLATE) was “active; positive. reevaluation of results: positive”.
Regarding `O=[N+]([O-])c1ccc2c3c(cccc13)-c1ccccc1-2`, the mutagenic call was “active; positive” (Test System: AMES SALMONELLA TYPHIMURIUM, Strain/Indicator: TA97, Metabolic Activation: NONE); “active; positive” (Test System: AMES SALMONELLA TYPHIMURIUM, Strain/Indicator: TA98(1,8-DNP6), Metabolic Activation: NONE); “active; positive” (Test System: AMES SALMONELLA TYPHIMURIUM, Strain/Indicator: TA98(1,8-DNP6), Metabolic Activation: NONE, Method: STANDARD PLATE); “active; positive” (Test System: AMES SALMONELLA TYPHIMURIUM, Strain/Indicator: TA98(NR), Metabolic Activation: NONE); “active; positive” (Test System: AMES SALMONELLA TYPHIMURIUM, Strain/Indicator: TA98(NR), Metabolic Activation: NONE, Method: STANDARD PLATE); “active; positive” under setting [6]. The mutagenic call by setting is: under setting [3], “active; positive”; (Test System: AMES SALMONELLA TYPHIMURIUM, Strain/Indicator: TA100(NR), Metabolic Activation: NONE, Method: STANDARD PLATE) “inactive; negative”; (Test System: AMES SALMONELLA TYPHIMURIUM, Strain/Indicator: TA100(TN5-1,8-DNP1012), Metabolic Activation: NONE, Method: STANDARD PLATE) “inactive; negative”; under setting [7], “active; positive”; under setting [5], “active; positive”; (Test System: AMES SALMONELLA TYPHIMURIUM, Strain/Indicator: TA1535, Metabolic Activation: NONE) “inactive; negative”. Besides, the mutagenic call by setting is: (Test System: AMES SALMONELLA TYPHIMURIUM, Strain/Indicator: TA1537, Metabolic Activation: NONE) “active; positive”; (Test System: AMES SALMONELLA TYPHIMURIUM, Strain/Indicator: TA1538, Metabolic Activation: NONE) “active; positive”; (Test System: AMES SALMONELLA TYPHIMURIUM, Strain/Indicator: TA1978, Metabolic Activation: NONE) “active; positive”; (Test System: AMES SALMONELLA TYPHIMURIUM, Strain/Indicator: TA7001, Metabolic Activation: NONE, Method: PREINCUBATION) “active; positive”; (Test System: AMES SALMONELLA TYPHIMURIUM, Strain/Indicator: TA7002, Metabolic Activation: NONE, Method: PREINCUBATION) “active; positive”; (Test System: AMES SALMONELLA TYPHIMURIUM, Strain/Indicator: TA7003, Metabolic Activation: NONE, Method: PREINCUBATION) “active; positive”. In addition, the mutagenic call by setting is: (Test System: AMES SALMONELLA TYPHIMURIUM, Strain/Indicator: TA7004, Metabolic Activation: NONE, Method: PREINCUBATION) “active; positive”; (Test System: AMES SALMONELLA TYPHIMURIUM, Strain/Indicator: TA7005, Metabolic Activation: NONE, Method: PREINCUBATION) “active; positive”; (Test System: AMES SALMONELLA TYPHIMURIUM, Strain/Indicator: TA7006, Metabolic Activation: NONE, Method: PREINCUBATION) “active; positive”; (Test System: AMES SALMONELLA TYPHIMURIUM, Strain/Indicator: TM677, Metabolic Activation: RAT, LIVER, S-9, AROCLOR 1254, Method: STANDARD PLATE) “active; positive”.
Turning to `Oc1cc(Cl)c(O)cc1Cl`, the mutagenic call runs as follows: under setting [6], “inactive; negative”; (Test System: AMES SALMONELLA TYPHIMURIUM, Strain/Indicator: TA98, Metabolic Activation: RAT, LIVER, S-9, AROCLOR 1254) “inactive; negative”; under setting [7], “inactive; negative”; (Test System: AMES SALMONELLA TYPHIMURIUM, Strain/Indicator: TA100, Metabolic Activation: RAT, LIVER, S-9, AROCLOR 1254) “inactive; negative”; (Test System: AMES SALMONELLA TYPHIMURIUM, Strain/Indicator: TA102, Metabolic Activation: NONE) “inactive; negative”; (Test System: AMES SALMONELLA TYPHIMURIUM, Strain/Indicator: TA102, Metabolic Activation: RAT, LIVER, S-9, AROCLOR 1254) “inactive; negative”. Moreover, the mutagenic call is “inactive; negative” (Test System: AMES SALMONELLA TYPHIMURIUM, Strain/Indicator: TA104, Metabolic Activation: NONE) and “inactive; negative” (Test System: AMES SALMONELLA TYPHIMURIUM, Strain/Indicator: TA104, Metabolic Activation: RAT, LIVER, S-9, AROCLOR 1254).
`CCCCCCOC(=O)c1ccccc1C(=O)OCCCCCC`: the mutagenic call reads like this: (Test System: AMES SALMONELLA TYPHIMURIUM, Strain/Indicator: TA98, Metabolic Activation: HAMSTER, LIVER, S-9, AROCLOR 1254 (10%), Method: PREINCUBATION) “inactive; negative”; under setting [1], “inactive; negative”; (Test System: AMES SALMONELLA TYPHIMURIUM, Strain/Indicator: TA98, Metabolic Activation: RAT, LIVER, S-9, AROCLOR 1254 (10%), Method: PREINCUBATION) “inactive; negative”; (Test System: AMES SALMONELLA TYPHIMURIUM, Strain/Indicator: TA100, Metabolic Activation: HAMSTER, LIVER, S-9, AROCLOR 1254 (10%), Method: PREINCUBATION) “inactive; negative”; under setting [4], “inactive; negative”; (Test System: AMES SALMONELLA TYPHIMURIUM, Strain/Indicator: TA100, Metabolic Activation: RAT, LIVER, S-9, AROCLOR 1254 (10%), Method: PREINCUBATION) “inactive; negative”. The mutagenic call is “inactive; negative” (Test System: AMES SALMONELLA TYPHIMURIUM, Strain/Indicator: TA1535, Metabolic Activation: HAMSTER, LIVER, S-9, AROCLOR 1254 (10%), Method: PREINCUBATION); “inactive; negative” (Test System: AMES SALMONELLA TYPHIMURIUM, Strain/Indicator: TA1535, Metabolic Activation: NONE, Method: PREINCUBATION); “inactive; negative” (Test System: AMES SALMONELLA TYPHIMURIUM, Strain/Indicator: TA1535, Metabolic Activation: RAT, LIVER, S-9, AROCLOR 1254 (10%), Method: PREINCUBATION); “inactive; negative” (Test System: AMES SALMONELLA TYPHIMURIUM, Strain/Indicator: TA1537, Metabolic Activation: HAMSTER, LIVER, S-9, AROCLOR 1254 (10%), Method: PREINCUBATION); “inactive; negative” (Test System: AMES SALMONELLA TYPHIMURIUM, Strain/Indicator: TA1537, Metabolic Activation: NONE, Method: PREINCUBATION); “inactive; negative” (Test System: AMES SALMONELLA TYPHIMURIUM, Strain/Indicator: TA1537, Metabolic Activation: RAT, LIVER, S-9, AROCLOR 1254 (10%), Method: PREINCUBATION).
With `CN1CCN(c2ccc3nc(CCc4ccc5nc(-c6ccc(N(CCCl)CCCl)cc6)[nH]c5c4)[nH]c3c2)CC1`, the mutagenic call was “inactive; negative” under setting [2]; “inactive; negative” under setting [5]; “active; positive” (Test System: AMES SALMONELLA TYPHIMURIUM, Strain/Indicator: TA102, Metabolic Activation: NONE, Method: STANDARD PLATE).

For the origin of these results see PubChem BioAssay AID1259407 (Chemical Carcinogenesis Research Information System (CCRIS), 2018).
